Measurements: ChEMBL document CHEMBL1833813, “Synthesis of a series of γ-amino alcohols comprising an N-methyl isoindoline moiety and their evaluation as NMDA receptor antagonists” (Bioorg Med Chem Lett, 2011)

Experiments:
[1] = Displacement of [3H]-ifenprodil from ifenprodil binding site of NMDA receptor low affinity site in porcine hippocampus synaptosomal fractions after 2 hrs; assay type: tissue-based, Sus scrofa
[2] = Displacement of [3H]MK-801 from high affinity site of NMDA-NR2B receptor in porcine hippocampus synaptosomal fractions after 15 mins; assay type: tissue-based, Sus scrofa
[3] = Displacement of [3H]MK-801 from low affinity site of NMDA receptor in porcine hippocampus synaptosomal fractions after 15 mins; assay type: tissue-based, Sus scrofa
Sus scrofa [4] = organism: Sus scrofa; assay: Displacement of [3H]-ifenprodil from ifenprodil binding site of NMDA receptor in porcine hippocampus synaptosomal fractions at 100 uM after 2 hrs relative to control; assay type: tissue-based
[5] = Displacement of [3H]MK-801 from NMDA-NR2B receptor in porcine hippocampus synaptosomal fractions under nonequilibrium conditions after 15 mins; assay type: tissue-based, Sus scrofa
[6] = Displacement of [3H]-ifenprodil from ifenprodil binding site of NMDA receptor in porcine hippocampus synaptosomal fractions after 2 hrs; assay type: tissue-based, Sus scrofa
hERG (KCNH2) = hERG (KCNH2) (Homo sapiens, UniProt Q12809); assay: Residual current of human ERG expressed in CHO-K1 cells at 100 uM by patch clamp electrophysiological assay relative to control; conditions: CHO-K1 cells expressing human ERG
Sus scrofa [7] = organism: Sus scrofa; assay: Displacement of [3H]MK-801 from NMDA-NR2B receptor in porcine hippocampus synaptosomal fractions at 100 uM after 15 mins relative to control; assay type: tissue-based

Chain of hERG (KCNH2) (Q12809 whole entry): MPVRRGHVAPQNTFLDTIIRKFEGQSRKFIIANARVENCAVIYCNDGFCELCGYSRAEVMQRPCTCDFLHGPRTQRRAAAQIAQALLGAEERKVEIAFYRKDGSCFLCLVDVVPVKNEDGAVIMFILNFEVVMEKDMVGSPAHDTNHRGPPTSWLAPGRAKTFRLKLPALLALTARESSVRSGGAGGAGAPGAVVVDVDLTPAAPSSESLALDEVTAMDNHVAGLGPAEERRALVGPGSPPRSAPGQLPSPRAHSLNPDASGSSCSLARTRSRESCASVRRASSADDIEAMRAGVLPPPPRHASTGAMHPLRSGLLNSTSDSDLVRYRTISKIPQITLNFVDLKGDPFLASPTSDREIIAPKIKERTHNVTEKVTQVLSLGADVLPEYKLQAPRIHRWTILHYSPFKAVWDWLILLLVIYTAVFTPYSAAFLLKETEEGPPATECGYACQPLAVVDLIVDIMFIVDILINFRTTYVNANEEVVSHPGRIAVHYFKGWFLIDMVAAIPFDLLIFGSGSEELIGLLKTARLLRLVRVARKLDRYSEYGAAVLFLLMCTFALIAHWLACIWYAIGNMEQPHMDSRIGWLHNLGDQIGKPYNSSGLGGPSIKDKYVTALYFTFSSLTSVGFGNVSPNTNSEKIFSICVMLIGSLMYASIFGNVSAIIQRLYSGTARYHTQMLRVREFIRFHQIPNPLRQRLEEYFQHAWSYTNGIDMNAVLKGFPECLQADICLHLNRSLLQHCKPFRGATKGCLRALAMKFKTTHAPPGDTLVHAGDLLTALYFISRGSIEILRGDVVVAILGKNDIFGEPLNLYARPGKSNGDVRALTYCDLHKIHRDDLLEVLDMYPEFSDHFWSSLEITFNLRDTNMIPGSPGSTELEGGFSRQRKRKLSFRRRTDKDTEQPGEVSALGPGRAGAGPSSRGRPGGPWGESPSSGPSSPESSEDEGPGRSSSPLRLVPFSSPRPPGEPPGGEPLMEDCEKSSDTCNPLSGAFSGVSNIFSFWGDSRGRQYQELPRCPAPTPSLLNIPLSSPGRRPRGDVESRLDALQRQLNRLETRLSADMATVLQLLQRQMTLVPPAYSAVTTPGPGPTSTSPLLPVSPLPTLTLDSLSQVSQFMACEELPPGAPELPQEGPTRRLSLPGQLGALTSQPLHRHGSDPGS

Row | Structure (SMILES) | IC50 [5] [µM] | IC50 [6] [µM] | other results
1 | COc1cc2c(cc1OC)[C@H](C[C@H](O)c1ccc(Cl)cc1)N(C)CC2 | – | – | IC50 [1]: 22.5 µM; IC50 [2]: 0.103 µM; IC50 [3]: 23.5 µM
2 | CN1Cc2ccccc2[C@@H]1C[C@H](O)c1ccc([N+](=O)[O-])cc1 | 43 | 7.5 | –
3 | Cc1ccc([C@@H](O)C[C@H]2c3ccccc3CN2C)cc1 | – | 0.43 | IC50 [2]: 0.21 µM; residual current at 100 µM (hERG (KCNH2)): 2.6%; IC50 [3]: 20 µM
4 | Cc1ccc([C@@H](O)C[C@@H]2c3ccccc3CN2C)cc1 | 23 | 9.3 | –
5 | Cc1ccc([C@H](O)C[C@@H]2c3ccccc3CN2C)cc1 | 31 | 35 | –
6 | CN1Cc2ccccc2[C@H]1C[C@H](O)c1ccc(Cl)cc1 | 47 | 21 | –
7 | CN1Cc2ccccc2[C@@H]1C[C@H](O)c1ccc(Cl)cc1 | – | 0.27 | IC50 [2]: 0.5 µM; residual current at 100 µM (hERG (KCNH2)): 1.6%; IC50 [3]: 67 µM
8 | CN1Cc2ccccc2[C@H]1C[C@@H](O)c1ccc(Cl)cc1 | – | 11 | Activity (Sus scrofa [7]): 78%

Further lines, with some results ahead:

Row | IC50 [5] [µM] | IC50 [6] [µM] | Structure (SMILES) | other results
9 | 39 | – | CN1Cc2ccccc2[C@@H]1C[C@@H](O)c1ccc([N+](=O)[O-])cc1 | Activity (Sus scrofa [4]): 54%
10 | 26 | – | CN1Cc2ccccc2[C@@H]1C[C@@H](O)c1ccc(Cl)cc1 | Activity (Sus scrofa [4]): 77%
11 | 43 | 42 | CN1Cc2ccccc2[C@H]1C[C@H](O)c1ccc([N+](=O)[O-])cc1 | –
12 | 28 | – | Cc1ccc([C@H](O)C[C@H]2c3ccccc3CN2C)cc1 | Activity (Sus scrofa [4]): 65%
13 | – | 52 | CN1Cc2ccccc2[C@H]1C[C@@H](O)c1ccc([N+](=O)[O-])cc1 | Activity (Sus scrofa [7]): 82%
